The compounds below were run on Fasted Mice (assay: Activity on Glucose Tolerance in Fasted Mice). Conditions: mice fasted 24 hours, 8 per group; dose 0.2 mmol/kg body weight orally in 1% aqueous carboxymethyl cellulose; glucose 1 g/kg sub-cutaneous 30 minutes later; vehicle control (dose 0) value in the row above; asterisks = significance vs controls.
Assay type: in vivo
Experimental: For this assay mice were fasted for 24 hours before the experiment and then randomised so that each treatment group contained 8 mice. The compounds were dosed orally in 1% aqueous carboxymethyl cellulose (10 ml/kg body weight), and 30 minutes later glucose (1 g/kg) was administered by the sub-cutaneous route. Blood samples for glucose analysis were taken from the tail 60 minutes after glucose administration; the results are shown in the table below.
A standard system for indicating the significance of results with respect to the controls (dose = zero mmol/kg) which received the 1% aqueous carboxymethyl cellulose vehicle only, is as follows: • ** P < 0.05 • *** P < 0.01 • **** P < 0.001
In the following Table, column A represents the dose of compound (mmol/kg body weight) and column B represents the blood glucose concentration (mmol/litre) 60 minutes after sub-cutaneous glucose load.

| Structure (SMILES) | blood glucose concentration (mmol/litre) 60 minutes after sub-cutaneous glucose load |
| --- | --- |
| CC1CN(C(=Nc2ccccc2)N=c2ccccn2C)CC(C)O1 (stereo not shown) [Example 3, N-(1,2-dihydro-1-methyl-2-pyridylidene)-N'-phenyl-4-(2,6-dimethylmorpholine)-carboxamidine] | 3.48 mmol/L |
| Cn1ccccc1=NC(=Nc1ccccc1)NCc1ccccc1 [Example 4, N-benzyl-N'-(1,2-dihydro-1-methyl-2-pyridylidene)-N"-phenylguanidine] | 5.36 ** mmol/litre |
| CCN(CC)C(=Nc1ccccc1)N=c1c(C)cccn1C.I [Example 10, N,N-diethyl-N'-(1,2-dihydro-1,3-dimethyl-2-pyridylidene)-N"-phenylguanidine hydroiodide] | 5.54 *** mmol/litre |
| Cc1ccn(C)c(=NC(=Nc2ccccc2)N2CCOCC2)c1.I [Example 11, N-(1,2-dihydro-1,4-dimethyl-2-pyridylidene)-N'-phenyl-4-morpholinecarboxamidine hydroiodide] | 4.47 ** mmol/litre |
| Cn1cc(Br)ccc1=NC(=Nc1ccccc1)N1CCOCC1.I [Example 12, N-(5-bromo-1,2-dihydro-1-methyl-2-pyridylidene)-N'-phenyl-4-morpholinecarboxamidine hydroiodide] | 3.52 *** mmol/litre |
| COC(=O)c1ccc(=NC(=Nc2ccccc2)N2CCOCC2)n(C)c1.I [Example 13, N-(5-carbomethoxy-1,2-dihydro-1-methyl-2-pyridylidene)-N'-phenyl-4-morpholinecarboxamidine hydroiodide] | 3.36 ** mmol/litre |
| Cc1ccc(=NC(=Nc2ccccc2)N2CCOCC2)n(C)c1 [Example 14, N-(1,2-Dihydro-1,5-dimethyl-2-pyridylidene)-N'-phenyl-4-morpholinecarboxamidine] | 2.53 **** mmol/litre |

Reference: EP0018134B1, “Dihydropyridine derivatives, processes for their preparation and pharmaceutical compositions containing them” (BEECHAM GROUP PLC, priority 1979, dated 1980)
